Source: patent publication US7585859B2, “PDE4B inhibitors and uses therefor” (Plexxikon, Inc., priority 2004, dated 2009)
Read-outs that look alike come from different tables or passages of the source.

Experiments:
[1] = biological target: T1, PDE4B: The catalytic domain of human PDE4B from S152-S528 (Homo sapiens, UniProt Q07343); test: PDE4 IC50 determination by Scintillation Proximity Assay, PDE4B; format: biochemical
T1 construct: His6 (N); thrombin cleavage site (N); made in house; host or cells: E. coli
Procedure, shortened: (§1)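 Hydrolysis of [^3H]cAMP measured by SPA with yttrium silicate beads, which bind the [^3H]AMP product strongly and cAMP weakly. Enzyme at 80 ng/ml for PDE4B, 4 ng/ml for PDE4D; 30 min at 30°.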

[2] = biological target: T2, PDE4D (Homo sapiens, UniProt Q08499); test: PDE4 IC50 determination by Scintillation Proximity Assay, PDE4D; format: biochemical
T2 construct: PDE4D: The catalytic domain of human PDE4B from S3 16-V692; His6 (N); thrombin cleavage site (N); made in house; host or cells: E. coli
Procedure, shortened: as §1

[3] = Table 3A, Formula III compounds, read-out: IC50 PDE4B
[4] = Table 3A, Formula III compounds, read-out: IC50 PDE4D
[5] = Table 1B, Formula I compounds, read-out: IC50 PDE4B
[6] = Table 1B, Formula I compounds, read-out: IC50 PDE4D
[7] = second part of Table 2B (2-23 to 2-103), column 3, column is PDE4B in first part, read-out: IC 50 vs. indicated assay h TNFα
[8] = second part of Table 2B (2-23 to 2-103), column 5, column is PDE4D in first part, read-out: IC 50 vs. indicated assay h TNFα

T1 sequence (Q07343 with tags, fused parts or gaps): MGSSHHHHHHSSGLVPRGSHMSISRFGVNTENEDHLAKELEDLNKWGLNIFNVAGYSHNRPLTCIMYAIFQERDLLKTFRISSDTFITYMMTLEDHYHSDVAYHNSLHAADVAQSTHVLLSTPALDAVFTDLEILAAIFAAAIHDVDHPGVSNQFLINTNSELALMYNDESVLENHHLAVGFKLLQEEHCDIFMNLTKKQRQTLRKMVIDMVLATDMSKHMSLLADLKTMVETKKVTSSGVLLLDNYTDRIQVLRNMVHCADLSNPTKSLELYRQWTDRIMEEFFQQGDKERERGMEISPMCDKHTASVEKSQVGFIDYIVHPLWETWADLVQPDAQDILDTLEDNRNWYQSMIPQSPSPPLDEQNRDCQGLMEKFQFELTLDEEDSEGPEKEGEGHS
T2 sequence (Q08499 380-756): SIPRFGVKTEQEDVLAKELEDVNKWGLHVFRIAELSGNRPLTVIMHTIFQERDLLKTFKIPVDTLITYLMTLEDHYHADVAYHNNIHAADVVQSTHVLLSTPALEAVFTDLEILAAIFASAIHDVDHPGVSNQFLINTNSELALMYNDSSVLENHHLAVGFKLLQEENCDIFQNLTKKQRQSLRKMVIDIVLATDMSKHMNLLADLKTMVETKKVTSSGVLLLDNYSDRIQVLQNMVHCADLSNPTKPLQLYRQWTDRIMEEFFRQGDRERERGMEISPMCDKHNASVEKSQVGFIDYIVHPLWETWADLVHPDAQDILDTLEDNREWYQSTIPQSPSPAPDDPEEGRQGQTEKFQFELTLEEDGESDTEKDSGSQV

IC50 [1, 5] | IC50 [2, 6] | Compound | other results
 |  | COc1cc(NS(=O)(=O)c2ccc(-c3ccon3)s2)c2ncccc2c1 [Compound 3-25, 5-Isoxazol-3-yl-thiophene-2-sulfonic acid (6-methoxy-quinolin-8-yl)-amide] | IC50 [1, 3]: > 10 µM; IC50 [2, 4]: > 10 µM
< 10 µM | < 10 µM | N#Cc1c(NC2CCCC2)sc(C(=O)c2ccccc2Cl)c1N [Compound 1-115, 4-Amino-5-(2-chloro-benzoyl)-2-cyclopentylamino-thiophene-3-carbonitrile] | 
< 10 µM | < 10 µM | N#Cc1c(NC2CCCC2)sc(C(=O)c2cccc(Cl)c2)c1N [Compound 1-120, 4-Amino-5-(3-chloro-benzoyl) 2-cyclopentylamino-thiophene-3-carbonitrile] | 
< 10 µM | < 10 µM | N#Cc1c(NC2CCCC2)sc(C(=O)c2cc(Br)no2)c1N [Compound 1-207, 4-Amino-5-(3-bromo-isoxazole-5-carbonyl)-2-cyclopentylamino-thiophene-3-carbonitrile] | 
< 10 µM | < 10 µM | N#Cc1c(NC2CCCC2)sc(C(=O)c2ccsc2)c1N [Compound 1-202, 4-Amino-2-cyclopentylamino-5-(thiophene-3-carbonyl)-thiophene-3-carbonitrile] | 
< 10 µM | > 10 µM | Cc1ccc(C(=O)c2sc(Nc3ccc(Oc4ccccc4)cc3)c(C#N)c2N)c(C)c1 [Compound 1-158, 4-Amino-5-(2,4-dimethyl-benzoyl)-2-(4-phenoxy-phenylamino)-thiophene-3-carbonitrile] | 
 |  | COc1ccc(Nc2nc(N)c(C(=O)c3ccc(OC(F)F)cc3)s2)cc1 [Compound 2-59, [4-Amino-2-(4-methoxy-phenylamino)-thiazol-5-yl]-(4-difluoromethoxy-phenyl)-methanone] | IC50 [1, 7]: < 10 µM; IC50 [2, 8]: < 10 µM
 |  | O=S(=O)(Nc1cccc2cccnc12)c1ccc(-c2cc(C(F)(F)F)on2)s1 [Compound 3-28, 5-(5-Trifluoromethyl-isoxazol-3-yl)-thiophene-2-sulfonic acid quinolin-8-ylamide] | IC50 [1, 3]: > 10 µM; IC50 [2, 4]: > 10 µM
 |  | Nc1nc(NC2CC2)sc1C(=O)c1ccc(Oc2ccccc2)cc1 [Compound 2-77, (4-Amino-2-cyclopropylamino-thiazol-5-yl)-(4-phenoxy-phenyl)-methanone] | IC50 [1, 7]: < 10 µM; IC50 [2, 8]: < 10 µM
< 10 µM | < 10 µM | N#Cc1c(Nc2ccc(OC(F)F)cc2)sc(C(=O)c2ccc(OC(F)F)cc2)c1N [Compound 1-165, 4-Amino-5-(4-difluoro-methoxy-benzoyl)-2-(4-difluoromethoxy-phenylamino)-thiophene-3-carbonitrile] | 
 |  | COc1cc(NS(=O)(=O)c2ccc(Cl)s2)c2ncccc2c1 [Compound 3-12, 5-Chloro-thiophene-2-sulfonic acid (6-methoxy-quinolin-8-yl)-amide] | IC50 [1, 3]: > 10 µM; IC50 [2, 4]: > 10 µM
 |  | Nc1nc(NC2CC2)sc1C(=O)c1ccc(OC(F)F)cc1 [Compound 2-85, (4-Amino-2-thiazol-5-yl)-(4-difluoromethoxy-phenyl)-methanone] | IC50 [1, 7]: < 10 µM; IC50 [2, 8]: > 10 µM
 |  | Cc1ccc2cccnc2c1NS(=O)(=O)c1ccc(-c2cc(C(F)(F)F)n(C)n2)s1 [Compound 3-22, 5-(1-Methyl-5-trifluoromethyl-1H-pyrazol-3-yl)-thiophene-2-sulfonic acid (7-methyl-quinolin-8-yl)-amide] | IC50 [1, 3]: > 10 µM; IC50 [2, 4]: > 10 µM
< 10 µM | < 10 µM | N#Cc1c(NC2CCOC2=O)sc(C(=O)c2ccc(-c3ccccn3)s2)c1N (centres unmarked) [Compound 1-79, 4-Amino-2-(2-oxo-tetrahydro-furan-3-ylamino)-5-(5-pyridin-2-yl-thiophene-2-carbonyl)-thiophene-3-carbonitrile] | 
 |  | Nc1nc(Nc2c(Cl)cccc2Cl)sc1C(=O)CC1CCCC1 [Compound 2-94, 1-[4-Amino-2-(2,6-dichloro-phenylamino)-thiazol-5-yl]-2-cyclopentyl-ethanone] | IC50 [1, 7]: > 10 µM; IC50 [2, 8]: > 10 µM
< 10 µM | > 10 µM | COC(=O)C(CCSC)Nc1sc(C(=O)c2ccc(C)cc2C)c(N)c1C#N (centres unmarked) [Compound 1-88, 2-[4-Amino-3-cyano-5-(2,4-dimethyl-benzoyl)-thiophen-2-ylamino]-4-methylsulfanyl-butyric acid methyl ester] | 
 |  | COc1cc(NS(=O)(=O)c2cccc(F)c2)c2ncccc2c1 [Compound 3-56, 3-Fluoro-N-(6-methoxy-quinolin-8-yl)-benzenesulfonamide] | IC50 [1, 3]: > 10 µM; IC50 [2, 4]: > 10 µM

IC50 [1, 5] | IC50 [2, 6] | Compound | other results
< 10 µM | < 10 µM | Cc1cc(NC(=O)c2sc(Nc3ccccc3)c(C#N)c2N)no1 [Compound 1-26, 3-Amino-4-cyano-5-phenylamino-thiophene-2-carboxylic acid (5-methyl-isoxazol-3-yl)-amide] | 
< 10 µM | < 10 µM | CCc1ccccc1Nc1sc(C(=O)c2coc3ccccc23)c(N)c1C#N [Compound 1-109, 4-Amino-5-(benzofuran-3-carbonyl)-2-(2-ethyl-phenylamino)-thiophene-3-carbonitrile] | 
< 10 µM | > 10 µM | Cc1c(C(=O)c2sc(NCCN3CCCCC3)c(C#N)c2N)cnn1-c1ccccc1 [Compound 1-51, 4-Amino-5-(5-methyl-1-phenyl-1H-pyrazole-4-carbonyl)-2-(2-piperidin-1-yl-ethylamino)-thiophene-3-carbonitrile] | 
< 10 µM | < 10 µM | Cc1ccc(C(=O)c2sc(Nc3ccc(C(=O)NC4CCOC4=O)cc3)c(C#N)c2N)c(C)c1 (centres unmarked) [Compound 1-89, 4-[4-Amino-3-cyano-5-(2,4-dimethyl-benzoyl)-thiophen-2-ylamino]-N-(2-oxo-tetrahydro-furan-3-yl)-benzamide] | 
 |  | COc1ccc(Nc2nc(N)c(C(=O)c3cccc(Cl)c3)s2)cc1 [Compound 2-51, [4-Amino-2-(4-methoxy-phenylamino)-thiazol-5-yl]-(3-chloro-phenyl)-methanone] | IC50 [1, 7]: < 10 µM; IC50 [2, 8]: < 10 µM
 |  | Nc1nc(Nc2c(Cl)cc(Cl)cc2Cl)sc1C(=O)c1ccccc1 [Compound 2-43, [4-Amino-2-(2,4,6-trichloro-phenylamino)-thiazol-5-yl]-phenyl-methanone] | IC50 [1, 7]: < 10 µM; IC50 [2, 8]: > 10 µM
< 10 µM | < 10 µM | Cc1sc(-c2ccccc2)cc1C(=O)c1sc(NC2CCCC2)c(C#N)c1N [Compound 1-234, 4-Amino-2-cyclopentylamino-5-(2-methyl-5-phenyl-thiophene-3-carbonyl)-thiophene-3-carbonitrile] | 
 |  | Cc1c(C(=O)c2sc(NC3CCCC3)nc2N)cnn1-c1ccccc1 [Compound 2-21, (4-Amino-2-cyclopentylamino-thiazol-5-yl)-(5-methyl-1-phenyl-1H-pyrazol-4-yl)-methanone] | IC50 ([1]; first part of Table 2B (2-1 to 2-22), read-out: IC 50 vs. indicated assay PDE4B): < 10 µM; IC50 ([2]; first part of Table 2B (2-1 to 2-22), read-out: IC 50 vs. indicated assay PDE4D): < 10 µM
< 10 µM | < 10 µM | COc1ccc(CNc2sc(C(=O)c3c(-c4ccccc4)noc3C)c(N)c2C#N)cc1OC [Compound 1-132, 4-Amino-2-(3,4-dimethoxy-benzylamino)-5-(5-methyl-3-phenyl-isoxazole-4-carbonyl)-thiophene-3-carbonitrile] | 
 |  | CSc1nccc(-c2ccc(S(=O)(=O)Nc3c(C)ccc4cccnc34)s2)n1 [Compound 3-15, 5-(2-Methylsulfanyl-pyrimidin-4-yl)-thiophene-2-sulfonic acid (7-methyl-quinolin-8-yl)-amide] | IC50 [1, 3]: > 10 µM; IC50 [2, 4]: > 10 µM
 |  | Cc1ccc2cccnc2c1NS(=O)(=O)c1ccc(-c2ccon2)s1 [Compound 3-24, 5-Isoxazol-3-yl-thiophene-2-sulfonic acid (7-methyl-quinolin-8-yl)-amide] | IC50 [1, 3]: > 10 µM; IC50 [2, 4]: > 10 µM
 |  | Nc1nc(NC2CCCC2)sc1C(=O)c1ccccc1Cl [Compound 2-75, (4-Amino-2-cyclopentylamino-thiazol-5-yl)-(2-chloro-phenyl)-methanone] | IC50 [1, 7]: > 10 µM; IC50 [2, 8]: > 10 µM
 |  | Nc1nc(NCc2ccccc2)sc1C(=O)c1ccccc1 [Compound 2-68, (4-Amino-2-benzylamino-thiazol-5-yl)-phenyl-methanone] | IC50 [1, 7]: < 10 µM; IC50 [2, 8]: < 10 µM
> 10 µM | > 10 µM | N#Cc1c(NC2CCOC2=O)sc(C(=O)c2ccccc2Cl)c1N (centres unmarked) [Compound 1-116, 4-Amino-5-(2-chloro-benzoyl)-2-(2-oxo-tetrahydro-furan-3-ylamino)-thiophene-3-carbonitrile] | 
 |  | O=S(=O)(Nc1cccc2cccnc12)c1cccs1 [Compound 3-1, Thiophene-2-sulfonic acid guinolin-8-ylamide] | IC50 [1, 3]: > 10 µM; IC50 [2, 4]: > 10 µM
< 10 µM | < 10 µM | CCC(C)Nc1sc(C(=O)c2ccc(Oc3ccccc3)cc2)c(N)c1C#N (centres unmarked) [Compound 1-232, 4-Amino-2-sec-butylamino-5-(4-phenoxy-benzoyl)-thiophene-3-carbonitrile] | 
< 10 µM | < 10 µM | COC(=O)C(CCSC)Nc1sc(C(=O)c2csc3ccccc23)c(N)c1C#N (centres unmarked) [Compound 1-122, 2-[4-Amino-5-(benzo[b]thiophene-3-carbonyl)-3-cyano-thiophen-2-ylamino]-4-methylsulfanyl-butyric acid methyl ester] | 
